# In patent US20240299269A1, “HYDROXY ACIDS FOR SCALP AND HAIR IN PERSONAL CARE COMPOSITIONS” (The Procter & Gamble Company, priority 2023, published 2024):
# Legend:
# [1] = octanol/water; cited from earlier work
# [2] = calcium binding constant; cited from earlier work
# [3] = In vitro calcium chelation screening of weak acids (octanol/water, ICP-OES); type: physicochemical; details: for % Calcium in Water Phase: 3% hydroxy acid in water, pH approximately 3, 1000 ppm CaCO3 in octanol, vortexed 2 minutes, 2 hours
# Method: A high throughput in-vitro screening method is developed to help identify lead acids that could function as calcium chelators. The intent of the method is to mimic the lipid matrix of the scalp and to quantify the amount of calcium that could be extracted from that matrix. […] Equal parts of the lipid and water phases are added to a conical vial and vortexed for 2 minutes. The vials are left to sit for 2 hours and then the lower water phase is extracted from the concial vial and submitted for Calcium analysis via ICP-OES. […] [formula]
Structure (SMILES),LogP [1],logK_1 [2],% Calcium in Water Phase [3] [%],calcium chelation ability ([3]; among hydroxy acids screened),logK_3 [2]
O=C(O)C(O)C(O)C(=O)O (stereo not drawn) [Tartaric Acid],−0.760,,,,
O=C(O)c1ccccc1O [Salicylic Acid],,1.100,29,lower calcium chelation ability,
O=C(O)[C@H](O)[C@@H](O)[C@H](O)[C@H](O)CO [Gluconic Acid],−1.870,1.880,,,
O=C(O)CC(O)(CC(=O)O)C(=O)O [Citric Acid],,1.100,,,4.680
O=C(O)CO [Glycolic Acid],−1.050,1.590,,,
CC(O)C(=O)O (stereo not drawn) [Lactic Acid],,1.450,78,,
